According to patent US12607406B2, “Recombinant virus, composition comprising the same, and uses thereof” (ACADEMIA SINICA, priority 2016, dated 2026):

How the values were obtained:
Type in all cases: biochemical
[1] = test system: Influenza A virus A/WSN/33 (H1N1) neuraminidase (NA) variant 44-G, substitution at position 44, SEQ ID NO: 8
[2] = test system: Influenza A virus A/WSN/33 (H1N1) neuraminidase (NA) variant 72-G, substitution at position 72, SEQ ID NO: 9
[3] = test system: Influenza A virus A/WSN/33 (H1N1) neuraminidase (NA) variant 44-72-G, substitutions at positions 44 and 72, SEQ ID NO: 10
[4] = test system: Influenza A virus A/WSN/33 (H1N1) neuraminidase (NA) variant 44-72-219-G, substitutions at positions 44, 72, and 219, SEQ ID NO: 11
[5] = test system: Influenza A virus A/WSN/33 (H1N1) neuraminidase (NA) on virus, variant 44-G, substitution at position 44, SEQ ID NO: 8
[6] = test system: Influenza A virus A/WSN/33 (H1N1) neuraminidase (NA) on virus, variant 72-G, substitution at position 72, SEQ ID NO: 9
[7] = test system: Influenza A virus A/WSN/33 (H1N1) neuraminidase (NA) on virus, variant 44-72-G, substitutions at positions 44 and 72, SEQ ID NO: 10
[8] = test system: Influenza A virus A/WSN/33 (H1N1) neuraminidase (NA) on virus, variant 44-72-219-G, substitutions at positions 44, 72, and 219, SEQ ID NO: 11
[9] = test system: Influenza A virus A/WSN/33 (H1N1) neuraminidase (NA), all mutants (44-G, 72-G, 44-72-G, 44-72-219-G)

SMILES	Kcat [1]	Km [1]	Km value increased [1]	Vmax [1]	Kcat [2]	Km [2]	Km value increased [2]	Vmax [2]	Kcat [3]	Km [3]	Vmax [3]	Kcat [4]	Km [4]	Vmax [4]	Km [5]	Km [6]	Km [7]	Km [8]	Km values of all mutants [9]
CC(=O)N[C@H]1[C@H]([C@H](O)[C@H](O)CO)O[C@@](O[C@H]2[C@@H](O)[C@@H](CO)O[C@@H](O[C@H]3[C@H](O)[C@@H](NC(C)=O)C(O)O[C@@H]3CO)[C@@H]2O)(C(=O)O)C[C@@H]1O (stereo partly shown) [3SLN, 3′-sialyl-N-acetyllactosamine]	389.8 s⁻¹	295 µM	more than two-fold	4.09 nM/s	364.4 s⁻¹	289 µM	more than two-fold	3.89 nM/s	136.4 s⁻¹	296 µM	1.46 nM/s	139.1 s⁻¹	299 µM	1.48 nM/s	274 µM	268 µM	285 µM	281 µM	–
CC(=O)N[C@H]1[C@H]([C@H](O)[C@H](O)CO)O[C@@](Oc2ccc3c(C)cc(=O)oc3c2)(C(=O)O)C[C@@H]1O [4-Muα-Neu5Ac, 2-(4-methylumbelliferyl)-α-D-N-acetylneuraminic acid]	468.5 s⁻¹	595 µM	–	4.95 nM/s	426.8 s⁻¹	591 µM	–	4.45 nM/s	100.3 s⁻¹	588 µM	1.15 nM/s	105.8 s⁻¹	597 µM	1.2 nM/s	508 µM	485 µM	429 µM	415 µM	similar
CC(=O)N[C@H]1[C@H]([C@H](O)[C@H](O)CO)O[C@@](OC[C@H]2O[C@@H](O[C@H]3[C@H](O)[C@@H](NC(C)=O)C(O)O[C@@H]3CO)[C@H](O)[C@@H](O)[C@H]2O)(C(=O)O)C[C@@H]1O (stereo partly shown) [6SLN, 6′-sialyl-N-acetyllactosamine]	90.6 s⁻¹	684 µM	–	0.92 nM/s	83.6 s⁻¹	688 µM	–	0.85 nM/s	19.8 s⁻¹	679 µM	0.24 nM/s	20.7 s⁻¹	675 µM	0.21 nM/s	525 µM	540 µM	521 µM	515 µM	similar
